# From US10653676B2 (Dana-Farber Cancer Institute, Inc., priority 2010, dated 2020)
# Read-outs that look alike come from different tables or passages of the source.
# How the values were obtained:
# USP1/UAF1 complex [1] = target: T1, USP1/UAF1 complex (Homo sapiens, UniProt O94782, G670A/G671A); assay: high throughput screening for inhibitors of USP1 deubiquitinating activity; format: biochemical; details: library of approximately 150,000 compounds
# T1 construct: This modified full length USP1 clone was PCR amplified and subcloned into pFastBac-HT vectors; His tag (N); made in house; host or cells: Sf9 insect cells (baculovirus)
# Protocol: The ubiquitin-Rho based enzyme assay for high throughput screening was established in a 384-well format. The reaction buffer containing and USP1/UAF1 complex were added in 384 well plates using automated liquid handling robot-Bio-Tek Microfill (Bio-Tek Instrments Inc., VT), followed by addition of the compounds (in DMSO) from the compound library plates to wells using a pin transfer robotic system at a final concentration of 10 μM. The reaction was composed of 0.1 nM purified USP1/UAF complex, 75 nM ubiquitin Rhodamine (Ub-Rho, Boston Biochem, U-600) and 2 μM ubiquitin. Fluorescence was monitored in a FluoStar Galaxy Fluorometer (BMG Labtech). Fluorescence emission at 535 nm (λex=485 nm) was measured in an automated plate reader Envision 2 (Perkin Elmer, Mass.).
# (§1) In order to develop a highly sensitive assay with easy readout for high throughput detection, the fluorogenic compound Ubiquitin-7-amido-4-methylcoumarin (AMC-Ub, Boston Biochem) was used as a substrate for USP1/UAF1 enzyme complex. USP1 catalyzes the cleavage of AMC-Ub, releasing free AMC moiety, which leads to increase in fluorescence emission at 460 nm (λex=380 nm). Dang et al. (1998) Biochemistry 37:1868-79. Catalytic activity towards AMC-Ub increases 35 fold compared to USP1 enzyme alone. Initial enzyme assay development was performed in 96-well plates with 100 μl reaction volume containing 20 mM HEPES-KOH, 0.1 mg/ml ovalbumin (Sigma), 0.5 mM EDTA, and 10 mM DTT. 2.5 nM USP1/UAF1 enzyme complex was mixed with the reaction buffer, incubated at 37° C. for 10 minutes and then 0.3 μM AMC-Ub was added. Fluorescence was measured using a Fluostar Galaxy Fluorometer (BMG Labtech Inc.).
# Once the preliminary enzyme assay was established in 96-well format, it was optimized for 384 wells for high throughput screening (HTS) of inhibitors. The major points to be considered were the volume of the reaction and amount of AMC-Ub substrate to be used in the assay. Since the price of AMC-Ub is very high, in order to make it a feasible assay for HTS, lowest workable amount of the AMC conjugate was used. Reaction volume was minimized to 30 μl in order to meet the recommendation of ICCB-L screening facility (Harvard). In the preliminary optimization experiment, a series of pilot experiments were performed with varying AMC-Ub concentrations (0.025 μM to 0.2 μM), along with the varying concentration of USP1/UAF1 complex (0.2 nM to 3.2 nM). […] After incubating the enzyme and buffer at 37° C. for 10 minutes, AMC-Ub was added and fluorescence emission at 460 nm (λex=380 nm) was measured in an automated plate reader Envision 2 (Perkin Elmer). Fluorescence reading for all time points up to one hour was noted and the data for different AMC-Ub concentration range was plotted with each USP1/UAF1 enzyme complex concentration. […]
# USP1/UAF1 complex [2] = target: T1, USP1/UAF1 complex; assay: ubiquitin-AMC in vitro deubiquitination enzyme assay; format: biochemical
# Protocol: Purified USP1/UAF1 complex was incubated with 1 μM C527 or DMSO for indicated time, followed by the addition of Ub-AMC at 0.5 μM final concentration. The fluorescence at […] was measured to indicate the enzymatic activity of USP1. […] 5A.
# The in vitro enzymatic assays were performed using purified proteins from Sf9 cells as described previously (Cohn et al.). The assays using ubiquitin-AMC (Ub-7-amido-4-methylcoumarin; Boston Biochem) as substrate was carried out in a reaction buffer containing 20 mM HEPES-KOH (pH 7.8), 20 mM NaCl, 0.1 mg/ml ovalbumin, 0.5 mM EDTA and 10 mM dithiothreitol. The fluorescence was measured by FluoStar Galaxy Fluorometer (BMG Labtech). For the Ub-vinylsulfone (VS) assay, the proteins were incubated with Ub-VS at 0.5 μM final concentration for 1 h at 30° C., followed by the immunoblotting analysis.
# as §1, with “Catalytic activity towards AMC-Ub increases 35 fold compared to USP1 enzyme alone.” left out
# Hits from the initial screening were analyzed further in secondary screening. In this step, the compounds were re-tested for inhibition using the AMC-Ub in vitro enzyme assay. After reconfirming inhibition, different concentration range of the inhibitors were tested to show dose dependency of inhibition and IC50 calculation.
# T1 sequence (O94782 whole entry G670A/G671A): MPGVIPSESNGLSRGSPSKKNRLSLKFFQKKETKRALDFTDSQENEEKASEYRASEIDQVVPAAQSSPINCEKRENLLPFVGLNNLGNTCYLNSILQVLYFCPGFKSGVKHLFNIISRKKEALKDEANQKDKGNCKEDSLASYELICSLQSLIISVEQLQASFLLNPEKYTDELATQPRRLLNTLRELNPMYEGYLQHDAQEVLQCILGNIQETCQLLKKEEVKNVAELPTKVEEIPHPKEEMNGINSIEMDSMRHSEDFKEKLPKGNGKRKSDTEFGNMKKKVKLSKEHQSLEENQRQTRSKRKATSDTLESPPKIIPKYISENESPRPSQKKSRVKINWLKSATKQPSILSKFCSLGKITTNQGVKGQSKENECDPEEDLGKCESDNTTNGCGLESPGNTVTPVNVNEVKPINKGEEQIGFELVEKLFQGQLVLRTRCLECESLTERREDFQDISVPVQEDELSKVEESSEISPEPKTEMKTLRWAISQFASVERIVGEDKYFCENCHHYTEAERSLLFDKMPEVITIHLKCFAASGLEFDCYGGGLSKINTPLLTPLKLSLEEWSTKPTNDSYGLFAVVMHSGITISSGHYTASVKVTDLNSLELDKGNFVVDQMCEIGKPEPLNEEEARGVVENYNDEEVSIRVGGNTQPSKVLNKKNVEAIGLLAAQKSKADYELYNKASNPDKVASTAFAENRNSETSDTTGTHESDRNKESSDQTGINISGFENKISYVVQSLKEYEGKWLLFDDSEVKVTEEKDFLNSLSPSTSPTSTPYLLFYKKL
# T1 sequence (Q8TAF3 whole entry partner): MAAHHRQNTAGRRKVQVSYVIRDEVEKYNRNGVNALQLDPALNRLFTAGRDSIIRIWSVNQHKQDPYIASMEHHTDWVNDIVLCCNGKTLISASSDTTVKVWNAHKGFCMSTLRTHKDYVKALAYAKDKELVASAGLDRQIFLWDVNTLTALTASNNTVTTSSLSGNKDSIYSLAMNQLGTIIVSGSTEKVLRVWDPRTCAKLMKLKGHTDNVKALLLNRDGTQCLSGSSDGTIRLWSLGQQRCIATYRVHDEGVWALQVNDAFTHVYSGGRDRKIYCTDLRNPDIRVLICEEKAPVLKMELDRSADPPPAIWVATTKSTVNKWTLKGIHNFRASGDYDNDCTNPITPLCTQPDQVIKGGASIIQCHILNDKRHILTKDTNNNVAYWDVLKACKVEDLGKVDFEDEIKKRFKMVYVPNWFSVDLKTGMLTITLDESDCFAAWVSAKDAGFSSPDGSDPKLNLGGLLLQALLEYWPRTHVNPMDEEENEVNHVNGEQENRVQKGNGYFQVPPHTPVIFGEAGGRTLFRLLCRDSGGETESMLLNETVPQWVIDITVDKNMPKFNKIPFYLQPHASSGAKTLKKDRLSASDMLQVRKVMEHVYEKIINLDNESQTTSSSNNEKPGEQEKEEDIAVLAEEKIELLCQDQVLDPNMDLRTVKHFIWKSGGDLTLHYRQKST
smiles,measurement,setting,value
O=C1c2ccccc2C(=O)c2oc(-c3ccc(F)cc3)nc21 [Formula IV (527)],identified as inhibitor of USP1 in initial in vitro screening,USP1/UAF1 complex [1],inhibitors of USP1
same,IC50,"USP1/UAF1 complex [2]; 4 hour preincubation, AMC-Ub in vitro enzyme assay, read-out: IC50",134 nM
same,inhibition of DUB activity (fluorescence) with pretreatment time,"USP1/UAF1 complex [2]; single dose 1 uM, variable time periods, FIG. 5A",serial increase in inhibition of DUB activity
same,DUB activity with increasing dose,"USP1/UAF1 complex [2]; treatment for 2 h, 0.5 to 2 μM, FIG. 5B",dose-dependent decrease in DUB activity
same,IC50,"USP1/UAF1 complex [2]; ubiquitin-AMC substrate, FIG. 5C, read-out: IC50 of C527 for the USP1/UAF1 complex",880 ± 30 nM
